Reference: US6444691B1, “1,3-disubstituted ureas as ACAT inhibitors, and method of preparing thereof” (Solvakofarma, a.s., priority 1997, dated 2002)

Assays:
[1] = test system: rat liver ACAT (acylCoa:cholesterol acyltransferase); assay: In vitro inhibition of ACAT activity, rat liver microsomal fraction; type: biochemical; conditions: rat liver microsomes, concentration 2 μM, versus enzyme activity in 1% dimethylsulfoxide
Protocol: (§1) The biological activity of the substances was evaluated based on the in vitro inhibition of acylCoa:cholesterol acyltransferase (ACAT) activity. The enzyme was obtained from the microsomal fraction of rat liver cells and rabbit intestinal mucosa of animals fed with cholesterol. The substrates for the enzyme reaction included exogenous oleoyl co-enzyme A and endogenous cholesterol. ^14C-oleoyl co-enzyme A conversion to ^14C-cholesteryl oleate was monitored. From the mixture of extracted lipids, cholesteryl oleate was separated using thin-layer chromatography, and was quantified radiometrically. ACAT specific activity was expressed as the amount of cholesteryl oleate formed per minute per mg microsomal protein.
(§2) Efficiency was calculated as compared to enzyme activity measured in the presence of 1% dimethylsulfoxide used as the solvent to prepare solutions of the substances tested.

[2] = test system: rabbit intestinal mucosa ACAT (acylCoa:cholesterol acyltransferase); assay: In vitro inhibition of ACAT activity, rabbit intestinal mucosa microsomal fraction; type: biochemical; conditions: rabbit intestinal mucosa microsomes, concentration 2 μM, versus enzyme activity in 1% dimethylsulfoxide
Protocol: as §1, §2

Compound | Efficiency (%) liver (ACAT inhibition) [1] [%] | Efficiency (%) mucosa (ACAT inhibition) [2] [%]
O=C(Nc1ccc(Oc2ccc([N+](=O)[O-])cc2)cc1)Nc1ccc(F)cc1F [Example 2] | 37 | 55
Cc1cccc(C)c1NC(=O)Nc1ccc(Oc2ccc(N)cc2)cc1 [Example 54, 1-(2,6-Dimethylphenyl)-3-((4′-aminophenoxy)-phenyl)-urea] | 38 | 62
O=C(Nc1ccc(Sc2ccc([N+](=O)[O-])cc2)cc1)Nc1ccccc1C(F)(F)F [Example 43, 1-(2-Trifluoromethylphenyl)-3-((4′-nitrophenylthio)-phenyl)-urea] | 25 | 38
CC(C)c1cccc(C(C)C)c1NC(=O)Nc1ccc(Oc2ccc(N)cc2)cc1 [Example 55, 1-(2,6-Di(methylethyl)-phenyl)-3-((4′-aminophenoxy)-phenyl)-urea] | 68 | 64
O=C(Nc1ccc(Sc2ccc([N+](=O)[O-])cc2)cc1)Nc1cccc2ccccc12 [Example 49, 1-(1-Naphthyl)-3-((4′-nitrophenylthio)-phenyl)-urea] | 24 | 36
Cc1ccccc1NC(=O)Nc1ccc(Sc2ccc([N+](=O)[O-])cc2)cc1 [Example 37, 1-(2-Methylphenyl)-3-((4′-nitrophenylthio)-phenyl)-urea] | 27 | 31
O=C(Nc1ccc(Sc2ccc([N+](=O)[O-])cc2)cc1)Nc1c(F)cccc1F [Example 29, 1-(2,6-Difluorophenyl)-3-((4′-nitrophenylthio)-phenyl)-urea] | 11 | 25
O=C(Nc1ccc(Oc2ccc([N+](=O)[O-])cc2)cc1)NC12CC3CC(CC(C3)C1)C2 [Example 23] | 43 | 58
Cc1cc(C)cc(NC(=O)Nc2ccc(Sc3ccc([N+](=O)[O-])cc3)cc2)c1 [Example 41, 1-(3,5-Dimethylphenyl)-3-((4′-nitrophenylthio)-phenyl)-urea] | 18 | 27
O=C(Nc1ccc(Sc2ccc([N+](=O)[O-])cc2)cc1)Nc1cccnc1 [Example 47, 1-(3-Pyridyl)-3-((4′-nitrophenylthio)-phenyl)-urea] | 45 | 36
Cc1ccc(NC(=O)Nc2ccc(Oc3ccc([N+](=O)[O-])cc3)cc2)c(C)c1 [Example 11, 1-(2,4-Dimethylphenyl)-3-((4′-nitrophenoxy)-phenyl)-urea] | 0 | 0
O=C(Nc1ccc(Oc2ccc([N+](=O)[O-])cc2)cc1)Nc1ccccn1 [Example 18] | 26 | 34
Nc1ccc(Oc2ccc(NC(=O)Nc3cccc(Cl)c3Cl)cc2)cc1 [Example 53, 1-(2,3-Dichlorophenyl)-3-((4′-aminophenoxy)-phenyl)-urea] | 55 | 46
Cc1ccc(NC(=O)Nc2ccc(Oc3ccc([N+](=O)[O-])cc3)cc2)cc1 [Example 10, 1-(4-Methylphenyl)-3-((4′-nitrophenoxy)-phenyl)-urea] | 0 | 0
Nc1ccc(Sc2ccc(NC(=O)Nc3cccc(Cl)c3Cl)cc2)cc1 [Example 57, 1-(2,3-Dichlorophenyl)-3-((4′-aminophenylthio)-phenyl)-urea] | 15 | 26
Nc1ccc(Sc2ccc(NC(=O)Nc3ccc(F)cc3F)cc2)cc1 [Example 56, 1-(2,4-Difluorophenyl)-3-((4′-aminophenylthio)-phenyl)-urea] | 22 | 25
O=C(Nc1ccc(Sc2ccc([N+](=O)[O-])cc2)cc1)Nc1ccccc1F [Example 25, 1-(2-Fluorophenyl)-3-((4′-nitrophenylthio)-phenyl)-urea] | 0 | 23
O=C(Nc1ccc(Sc2ccc([N+](=O)[O-])cc2)cc1)Nc1ccc(C(F)(F)F)cc1 [Example 45, 1-(4-Trifluoromethylphenyl)-3-((4′-nitrophenylthio)-phenyl)-urea] | 23 | 25
CC(C)c1cccc(C(C)C)c1NC(=O)Nc1ccc(Oc2ccc([N+](=O)[O-])cc2)cc1 [Example 14, 1-(2,6-Di-(methylethyl)-phenyl)-3-((4′-nitrophenoxy)-phenyl)-urea] | 50 | 67

Compound | Efficiency (%) liver (ACAT inhibition) [1] [%] | Efficiency (%) mucosa (ACAT inhibition) [2] [%]
O=C(Nc1ccc(Oc2ccc([N+](=O)[O-])cc2)cc1)Nc1cccc(C(F)(F)F)c1 [Example 16, 1-(3-Trifluoromethylphenyl)-3-((4′-nitrophenoxy)-phenyl)-urea] | 38 | 45
Cc1cccc(C)c1NC(=O)Nc1ccc(Sc2ccc(N)cc2)cc1 [Example 58, 1-(2,6-Dimethylphenyl)-3-((4′-aminophenylthio)-phenyl)-urea] | 21 | 29
O=C(Nc1ccc(Oc2ccc([N+](=O)[O-])cc2)cc1)Nc1ccccc1F [Example 1, 1-(2-Fluorophenyl)-3-((4′-nitrophenoxy)-phenyl)-urea] | 15 | 32
O=C(Nc1ccc(Sc2ccc([N+](=O)[O-])cc2)cc1)Nc1ccc(Cl)c(Cl)c1 [Example 35, 1-(3,4-Dichlorophenyl)-3-((4′-nitrophenylthio)-phenyl)-urea] | 0 | 20
Cc1cccc(C)c1NC(=O)Nc1ccc(Oc2ccc([N+](=O)[O-])cc2)cc1 [Example 12, 1-(2,6-Dimethylphenyl)-3-((4′-nitrophenoxy)-phenyl)-urea] | 41 | 65
Cc1cc(C)cc(NC(=O)Nc2ccc(Oc3ccc([N+](=O)[O-])cc3)cc2)c1 [Example 13, 1-(3,5-Dimethylphenyl)-3-((4′-nitrophenoxy)-phenyl)-urea] | 0 | 0
Nc1ccc(Oc2ccc(NC(=O)Nc3ccc(F)cc3F)cc2)cc1 [Example 52, 1-(2,4-Difluorophenyl)-3-((4′-aminophenoxy)-phenyl)-urea] | 53 | 64
O=C(Nc1ccncc1)Nc1ccc(Sc2ccc([N+](=O)[O-])cc2)cc1 [Example 48, 1-(4-Pyridyl)-3-((4′-nitrophenylthio)-phenyl)-urea] | 53 | 35
O=C(Nc1ccc(Cl)cc1)Nc1ccc(Sc2ccc([N+](=O)[O-])cc2)cc1 [Example 31, 1-(4-Chlorophenyl)-3-((4′-nitrophenylthio)-phenyl)-urea] | 12 | 21
O=C(Nc1ccc(Sc2ccc([N+](=O)[O-])cc2)cc1)Nc1ccccc1Cl [Example 30, 1-(2-Chlorophenyl)-3-((4′-nitrophenylthio)-phenyl)-urea] | 20 | 26
1-(2,6-Dimethylphenyl)-3-((4′-nitrophenylthio)-phenyl)-urea [Example 40] | 23 | 34
O=C(Nc1ccc(Oc2ccc([N+](=O)[O-])cc2)cc1)Nc1ccccc1Cl [Example 5, 1-(2-Chlorophenyl)-3-((4′-nitrophenoxy)-phenyl)-urea] | 0 | 0
1-(2,4-Dimethylphenyl)-3-((4′-nitrophenylthio)-phenyl)-urea [Example 39] | 19 | 31
Cc1ccc(NC(=O)Nc2ccc(Sc3ccc([N+](=O)[O-])cc3)cc2)cc1 [Example 38, 1-(4-Methylphenyl)-3-((4′-nitrophenylthio)-phenyl)-urea] | 21 | 32
O=C(Nc1ccc(Sc2ccc([N+](=O)[O-])cc2)cc1)Nc1ccc(Cl)cc1Cl [Example 33, 1-(2,4-Dichlorophenyl)-3-((4′-nitrophenylthio)-phenyl)-urea] | 12 | 16
O=C(Nc1ccc(Sc2ccc([N+](=O)[O-])cc2)cc1)Nc1ccc([N+](=O)[O-])cc1 [Example 24, 1-(4-Nitrophenyl)-3-((4′-nitrophenylthio)-phenyl)-urea] | 0 | 34
O=C(Nc1ccc(Oc2ccc([N+](=O)[O-])cc2)cc1)Nc1cc(Cl)cc(Cl)c1 [Example 8, 1-(3,5-Dichlorophenyl)-3-((4′-nitrophenoxy)-phenyl)-urea] | 0 | 0
CC(C)c1cccc(C(C)C)c1NC(=O)Nc1ccc(Sc2ccc(N)cc2)cc1 [Example 59] | 56 | 67
O=C(Nc1ccc(Oc2ccc([N+](=O)[O-])cc2)cc1)Nc1c(Cl)cccc1Cl [Example 7, 1-(2,6-Dichlorophenyl)-3-((4′-nitrophenoxy)-phenyl)-urea] | 20 | 25
